The source of these data is paper PMC7248252, “Accumulation of TB-Active Compounds in Murine Organs Relevant to Infection by Mycobacterium tuberculosis” (Frontiers in Pharmacology, 2020).

Molecules are shown by their SMILES. Values after ≈ are worked out from the molar mass of the structure shown.

Broadly, the MIC90 is an inhibitory concentration at the 90% level, which refers to growth in some studies and to a panel of isolates in others.

Details of data set [1]: method as in Ishida et al., 1999. Particulars: 120 mg/kg, Streptococcus pneumoniae-infected mouse model; ref Ishida et al., 1999; cited from earlier work.
The nature of data set [2]: Unbound tissue concentrations (tissue binding by ultracentrifugation of spiked organ homogenate). As to conditions: 1 μg/ml, 4 h, 37°C.
For data set [3], the system named is Mycobacterium tuberculosis. As to conditions: determined in different experiments, reference not given; cited from earlier work.
The conditions of data set [4]: in vivo, po, 10 mg/kg.
The conditions of data set [5]: mouse, tissue homogenate.
The conditions of data set [6]: 25 mg/kg, healthy murine lung tissue; ref Irwin et al., 2016; cited from earlier work.

Take `C[C@H]1COc2c(N3CCN(C)CC3)c(F)cc3c(=O)c(C(=O)O)cn1c23` [LVX]: the maximal lung concentration in data set [1] is on record as 5.95 µg/g.

For `CCN(CC)c1ccc2nc3c4ccccc4c(=Nc4ccccc4)cc-3oc2c1` [PhX1], the Ratio bound was found to be 0.88 in data set [2] (Blood); 0.98 in data set [2] (Brain); 0.98 in data set [2] (Heart); 0.97 in data set [2] (Kidney); 0.99 in data set [2] (Liver); 0.97 in data set [2] (Lung). Also, the Ratio bound in data set [2] (Spleen) amounted to 0.94. Also, the MIC90 in data set [3] is 0.196 µM (≈ 0.0771 µg/mL). In data set [4] (male, C57BL/6, mouse), this compound returned an AUC lung tissue of 9669 ± 120.2 min/nmol/mg. The same compound showed an AUC heart tissue in data set [4] (mouse) of 12450 ± 45.2 min/nmol/mg. Also, the “Cmax (highest concentration) lung tissue” value in data set [4] (mouse) is recorded as 22.4 ± 2.35 nmol/mg. Moreover, in data set [4] (mouse), the Cmax heart tissue stood at 8.83 ± 3.16 nmol/mg. Besides, the “estimated organ free fraction concentration compared with MIC90” value in data set [4] (mouse) is on record as “below the MIC90 values”. Besides, the unbound fractions in data set [5] is 0.18-0.01.

Turning to `CCCCCCCCCOc1cc2c(=O)c(C(=O)NCCOCCO)cn(CC)c2cc1OCC` [RMB041], the Ratio bound in data set [2] (Blood) was determined as 0.82; in data set [2] (Brain) it was 0.98; in data set [2] (Heart), 0.97; in data set [2] (Kidney), 0.97; in data set [2] (Liver), 0.91; in data set [2] (Lung), 0.93. Further, in data set [2] (Spleen), the Ratio bound turned out to be 0.92. Besides, in data set [3], the MIC90 is 1.61 µM (≈ 0.79 µg/mL). Besides, the “Cmax (highest concentration) lung tissue” value in data set [4] (mouse) stood at 3.2 nmol/mg. Also, the “estimated organ free fraction concentration compared with MIC90” value in data set [4] (mouse) is given as “below the MIC90 values”. In addition, in data set [5], the unbound fractions is listed as 0.18-0.01.

As to `CC1(C)S[C@@H]2[C@H](NC(=O)[C@H](N)c3ccccc3)C(=O)N2[C@H]1C(=O)O` [ampicillin], in data set [1], the maximal lung concentration was 1.71 µg/g.

Consider `COc1nc2ccc(Br)cc2cc1[C@@H](c1ccccc1)[C@@](O)(CCN(C)C)c1cccc2ccccc12` [bedaquiline], for which, in data set [6], the Cmax lung tissue is given as 24 µM.

Consider `O=C(O)c1cn(C2CC2)c2cc(N3CCNCC3)c(F)cc2c1=O` [ciprofloxacin], for which, in data set [1], the maximal lung concentration is 1.10 µg/g.
